Data: patent US9175044B2, “Derivatives of glyco-CF2-serine and glyco-CF2-threonine” (TFCHEM, priority 2010, dated 2015)

Tests used:
[1] = test system: neonatal human skin fibroblasts (Cell line: CCD-27SK); assay: Preservation of neonatal skin fibroblasts under starvation conditions (Trypan blue viability assay); assay type: cell-based; conditions: for effect on skin fibroblasts under unfavorable conditions for growth: 5 mg/ml in starvation medium, 7 days
Protocol: • The neonatal human skin fibroblasts (Cell line: CCD-27SK, ATCC number CRL-1475) were grown with DMEM medium supplemented with Fetal Bovine Serum 10% final, antibiotics (Penicillin/Streptomycin) 1% final and Amphotericin B 0.1% final. • Fibroblasts were grown in 75 cm^2 culture flask to 80% confluence, in 37° C. and 10% CO2 incubator. The medium was changed every two days by 37° C. preheated fresh medium. Starvation Medium • This medium was composed of 45% subculture medium without Fetal Bovine Serum mixed with 55% of Phosphate Buffer Saline 1× containing EDTA (final concentration of 0.45 mM). This was referred to as serum free or starvation medium. Product Preparation • The compounds 13(b)αd1 and 13(b)αd2 (M=479.9 g/mol) were diluted in starvation medium to 5 mg/ml final and pH was adjusted at 7.4 by addition of NaOH 1N. […] So, only the dead cells are blue at microscopic observation. • For sampling, 110 μl of Trypan Blue (SIGMA T8154) was added to 110 μl of trypsinated cell suspension of matching well for counting. • 200 μl of the trypan blue/cell mixture are dropped to a hemacytometer. Cells are counting by using a Neubauer-counting chamber. The unstained (viable) and stained (nonviable) cells are counted separately on 9 area of a large square (1 mm^2) and added to obtain the total number of cells per sample. An average of three counts was used to calculate the viability percentage as: [number of viable cells/total number of cells]*100 • The cell viability percentages from cultures under starvation conditions were compared with control culture for several days after their addition (D0, D3, D4, D5, D6, D7). Results

α-galactosidase = biological target: T1, α-galactosidase (Coffea arabica, UniProt Q42656); assay: Enzymatic stability of α-Gal-CF2-Ser pseudo-glycosidic bond with α-galactosidase; assay type: in vitro ADME; conditions: 24 h at 37° C.; for hydrolysis after incubation with α-galactosidase, mass spectra with vs without enzyme: ammonium acetate buffer 10 mM pH 7, α-galactosidase 2.25 U, MS; for cleavage by α-galactosidase, F-NMR analysis: ammonium acetate buffer pH 7, α-galactosidase 2.25 U
T1 construct: purchased Sigma G8507
T1 sequence (Q42656 16-378): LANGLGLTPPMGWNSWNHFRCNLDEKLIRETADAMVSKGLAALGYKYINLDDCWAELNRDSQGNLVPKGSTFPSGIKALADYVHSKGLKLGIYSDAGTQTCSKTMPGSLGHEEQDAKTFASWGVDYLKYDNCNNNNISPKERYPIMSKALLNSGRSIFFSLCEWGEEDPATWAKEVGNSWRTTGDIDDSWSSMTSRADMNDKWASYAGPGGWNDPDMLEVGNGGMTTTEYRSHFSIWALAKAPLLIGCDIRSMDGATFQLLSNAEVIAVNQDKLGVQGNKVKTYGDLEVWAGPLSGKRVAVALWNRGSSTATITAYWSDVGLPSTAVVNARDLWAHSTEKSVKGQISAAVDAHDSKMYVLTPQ
Protocol: The enzymatic stability has been performed with compounds Cd1, Cd2, Dd1 and Dd2 according to the invention and compound F was used as a reference compound to control the efficacy of the α-galactosidase. All the compounds have been treated with α-galactosidase. The stability of compounds Cd1, Cd2, Dd1 and Dd2 has been assessed by MS analysis after incubation with α-galactosidase. The procedure has been adapted from Maljaars et al. J. Comb. Chem. 2006, 8, 812-819.
Test compound Cd1 ([…], 1.8 mg) in 0.75 mL ammonium acetate buffer (10 mM, pH 7) was kept 24 h at 37° C. in the presence and absence of α-galactosidase (2.25 U, 41 μL of a 3.7 mg·mL^−1 suspension in ammonium sulphate (G8507 sigma, 14.7 U/mg)). 300 μL of the samples were filtered through a 3-kDa-cutoff centrifugal filter (Millipore) and the filter was washed with H2O (2×300 μL). The resultant solutions were diluted in water/methanol 1:1 (3 μL in 1 mL);
Test compound Cd2 ([…], 5.3 mg) has been treated in the presence and absence of α-galactosidase following the same process.
The samples of compound Cd1 and Cd2 in presence of α-galactosidase have been analyzed by mass spectrometry and their spectra compared to the mass spectra of compound Cd1 and Cd2 in absence of α-galactosidase.
The same procedure was applied to compound Dd1 ([…], 2.6 mg) and Dd2 ([…], 2.6 mg).
In parallel, p-nitrophenyl-α-galactoside (compound F, 6 μmol, 1.8 mg) in 0.75 mL of ammonium acetate buffer (10 mM, pH 7) was kept 24 h at 37° C. in the presence and absence of α-galactosidase 2.25 U, 41 μL of a 3.7 mg·mL^−1 suspension in ammonium sulphate ((G8507 sigma) 14.7 U/mg). The OD of the two samples was measured at 420 nm to verify that the α-galactosidase is working and that degradation occurs on compound F (OD420 with α-galactosidase=1.6303/OD420 without α-galactosidase=0.0124).

β-galactosidase = biological target: T2, β-galactosidase (Escherichia coli, UniProt P00722); assay type: in vitro ADME; conditions: 24 h at 37° C.; for hydrolysis after incubation with β-galactosidase, mass spectra with vs without enzyme: ammonium acetate buffer 10 mM pH 7, β-galactosidase 4.5 U, MS (ESI)
T2 construct: purchased Sigma 48275
T2 sequence (P00722 2-1024): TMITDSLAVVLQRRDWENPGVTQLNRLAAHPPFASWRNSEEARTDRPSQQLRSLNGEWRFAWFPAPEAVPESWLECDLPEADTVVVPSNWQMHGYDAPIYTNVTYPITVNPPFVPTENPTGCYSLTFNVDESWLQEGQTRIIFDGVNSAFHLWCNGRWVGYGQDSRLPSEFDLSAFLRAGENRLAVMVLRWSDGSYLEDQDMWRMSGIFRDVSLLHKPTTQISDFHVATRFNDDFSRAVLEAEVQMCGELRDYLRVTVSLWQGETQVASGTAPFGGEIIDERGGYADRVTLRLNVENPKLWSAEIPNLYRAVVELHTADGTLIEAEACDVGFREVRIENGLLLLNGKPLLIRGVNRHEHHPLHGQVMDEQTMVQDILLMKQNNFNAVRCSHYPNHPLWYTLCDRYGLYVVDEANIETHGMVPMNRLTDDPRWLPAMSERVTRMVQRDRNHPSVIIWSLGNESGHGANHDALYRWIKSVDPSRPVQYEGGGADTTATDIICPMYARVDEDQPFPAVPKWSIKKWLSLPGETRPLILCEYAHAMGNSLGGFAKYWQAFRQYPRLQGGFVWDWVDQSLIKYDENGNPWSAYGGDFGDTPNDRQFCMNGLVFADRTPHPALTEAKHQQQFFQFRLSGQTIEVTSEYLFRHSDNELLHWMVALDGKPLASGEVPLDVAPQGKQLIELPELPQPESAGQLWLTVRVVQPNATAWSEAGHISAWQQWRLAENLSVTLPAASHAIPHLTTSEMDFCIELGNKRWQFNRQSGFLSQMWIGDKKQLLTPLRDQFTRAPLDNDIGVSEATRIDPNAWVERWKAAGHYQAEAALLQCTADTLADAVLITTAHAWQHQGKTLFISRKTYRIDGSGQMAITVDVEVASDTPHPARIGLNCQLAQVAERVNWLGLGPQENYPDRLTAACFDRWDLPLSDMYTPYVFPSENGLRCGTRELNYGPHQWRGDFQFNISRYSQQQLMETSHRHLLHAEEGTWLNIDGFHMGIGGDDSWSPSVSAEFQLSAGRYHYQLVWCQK
Protocol: The enzymatic stability has been performed with compound Ad1 and Ad2 according to the invention and compound B used as a reference compound to control the efficacy of the β-galactosidase. Both compounds have been treated with β-galactosidase. The stability of compound Ad1 and Ad2 has been assessed by mass spectrum (MS) analysis after incubation with β-galactosidase. The samples have been injected and ionized by electrospray (ES) (in positive and negative mode). The procedure has been adapted from Maljaars et al. J. Comb. Chem. 2006, 8, 812-819.
Test compound Ad1 (12 μmol, 5.3 mg) in 1.5 mL ammonium acetate buffer (10 mM, pH 7) was kept 24 h at 37° C. in the presence and absence of β-galactosidase (4.5 U, 32 μL of a 1 mg·mL^−1 solution in ammonium acetate buffer, (48275 sigma, 140 U per mg)). 300 μL of the sample was filtered through a 3-kDa-cutoff centrifugal filter (Millipore), and the filter was washed with H2O (2×300 μL). The obtained solutions were diluted in water/methanol 1:1 (3 μL in 1 mL).
Test compound Ad2 (12 μmol, 5.3 mg) has been treated in the presence and absence of β-galactosidase following the same process.
These samples of compound Ad1 and Ad2 in presence of β-galactosidase have been submitted to mass spectra and compared to the mass spectra of compound Ad1 and Ad2 in absence of β-galactosidase.
The two samples were also analyzed by F-NMR to confirm that the test compound Ad1 and Ad2 were not cleaved by the β-galactosidase.
In parallel, p-nitrophenyl-β-galactoside (compound B, 12 μmol, 3.6 mg) in 1.5 mL ammonium acetate buffer (10 mM, pH 7) was kept 24 h at 37° C. in the presence and absence of β-galactosidase (4.5 U, 32 μL of a 1 mg·mL^−1 solution in ammonium acetate buffer (48275 sigma, 140 U per mg)).
The optical density (OD) of the two samples was measured at 420 nm to verify that the β-galactosidase is working and that degradation occurs on compound B (OD420 with β-galactosidase=1.5786/OD420 without β-galactosidase=0.0465).

[2] = ammonium acetate buffer pH 7, β-galactosidase 4.5 U

Row | Compound | hydrolysis after incubation with α-galactosidase, mass spectra with vs without enzyme (α-galactosidase) | cleavage by α-galactosidase, F-NMR analysis (α-galactosidase) | other results
1 | C[C@H](NC(=O)[C@H](C)NC(=O)C(N)CC(F)(F)[C@H]1O[C@H](CO)[C@H](O)[C@H](O)[C@H]1O)C(=O)O (single isomer, unassigned) [13(b)αd1] |  |  | effect on skin fibroblasts under unfavorable conditions for growth [1]: preservative effect; viability at 5000 µg/mL ([1]; Homo sapiens, CCD-27Sk, 168 h, 5 mg/ml in starvation (serum free) medium, up to 7 days of incubation, Trypan blue exclusion, read-out: fibroblast viability): ~95%
2 | C[C@H](NC(=O)[C@H](C)NC(=O)C(N)CC(F)(F)[C@H]1O[C@H](CO)[C@H](O)[C@H](O)[C@H]1O)C(=O)O (single isomer, unassigned) [13(b)αd2] |  |  | effect on skin fibroblasts under unfavorable conditions for growth [1]: preservative effect
3 | C[C@H](NC(=O)[C@H](C)NC(=O)C(N)CC(F)(F)[C@H]1O[C@H](CO)[C@H](O)[C@H](O)[C@H]1O)C(=O)O (single isomer, unassigned) [Dd1] | no hydrolysis occurs | not cleaved | 
4 | C[C@H](NC(=O)[C@H](C)NC(=O)C(N)CC(F)(F)[C@H]1O[C@H](CO)[C@H](O)[C@H](O)[C@H]1O)C(=O)O (single isomer, unassigned) [Dd2] | no hydrolysis occurs | not cleaved | 
5 | C[C@H](NC(=O)[C@H](C)NC(=O)C(N)CC(F)(F)[C@@H]1O[C@H](CO)[C@H](O)[C@H](O)[C@H]1O)C(=O)O (stereo partly shown) [Ad1] |  |  | hydrolysis after incubation with β-galactosidase, mass spectra with vs without enzyme (β-galactosidase): no hydrolysis occurs; cleavage by β-galactosidase, F-NMR analysis (β-galactosidase; [2]): not cleaved
6 | C[C@H](NC(=O)[C@H](C)NC(=O)C(N)CC(F)(F)[C@@H]1O[C@H](CO)[C@H](O)[C@H](O)[C@H]1O)C(=O)O (stereo partly shown) [Ad2] |  |  | hydrolysis after incubation with β-galactosidase, mass spectra with vs without enzyme (β-galactosidase): no hydrolysis occurs; cleavage by β-galactosidase, F-NMR analysis (β-galactosidase; [2]): not cleaved
7 | O=[N+]([O-])c1ccc(O[C@@H]2O[C@H](CO)[C@H](O)[C@H](O)[C@H]2O)cc1 [B, p-nitrophenyl-β-galactoside, reference compound] |  |  | visual observation in the presence of β-galactosidase (decomposition) (β-galactosidase; [2]): yellow coloration was observed
8 | NC(CC(F)(F)[C@H]1O[C@H](CO)[C@H](O)[C@H](O)[C@H]1O)C(=O)O (stereo partly shown) [Cd1] | no hydrolysis occurs | not cleaved | 
9 | NC(CC(F)(F)[C@H]1O[C@H](CO)[C@H](O)[C@H](O)[C@H]1O)C(=O)O (stereo partly shown) [Cd2] | no hydrolysis occurs | not cleaved | 
